Consider three molecules from article PMC10528299, “Targeting FAK/PYK2 with SJP1602 for Anti-Tumor Activity in Triple-Negative Breast Cancer” (Current Issues in Molecular Biology, 2023).

The subject of one assay is MDA-MB-231. Put plainly: 3D spheroid assay MDA-MB-231. The format is cell-based. The conditions noted are these: Homo sapiens, 96 h; MDA-MB-231, 2% Matrigel, 4 days treatment; read-out: IC50 3D spheroid cell viability. As to the method:
(§1) Breast cancer cell lines were cultured in medium with or without 2% Matrigel (Corning, NY, USA) for 3 days in each 96-well ultra-low attachment round plate to form a single spheroid at a density of 3 × 10^3 cells/well. SJP1602 was dissolved in DMSO and treated for 4 days at concentrations ranging from 200 nM to 20 μM. Cell viability was quantified according to the manufacturer’s instructions using a CellTiter-Glo 3D cell viability assay (Promega, Madison, WI, USA). Luminescence was measured using the Tecan Spark 10M.

A further assay relates to BT-549. Nature of the assay: 3D spheroid assay BT-549. The conditions noted are these: Homo sapiens, 96 h; BT-549, 4 days treatment; read-out: IC50 3D spheroid cell viability. The format is cell-based. As for the experimental part: as §1
For a further assay, the system named is Hs578T. Nature of the assay: 3D spheroid assay Hs578T. The format is cell-based. The conditions noted are these: Homo sapiens, Hs-578T, 96 h, 4 days treatment, read-out: IC50 3D spheroid cell viability. As for the experimental part: as §1
For a further assay, the system named is BT-20. Put plainly: 3D spheroid assay BT-20. The format is cell-based. Conditions: Homo sapiens, 96 h; BT-20, 4 days treatment; read-out: IC50 3D spheroid cell viability. As to the method:
as §1

A further assay addresses T1, MEK1(h) (Homo sapiens, UniProt Q02750).
T1 construct: purchased Eurofins KinaseProfiler
Put plainly: Eurofins kinase profiling. The format is biochemical. The conditions noted are these: read-out: residual kinase activity MEK1(h). The method, boiled down:
(§2)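 Protein kinases were run in the KinaseProfiler radiometric format with the test compound at 1 µM, and activity was measured by incorporation of radiolabeled phosphate. The assays followed the provider's standard protocols as part of a 110-kinase panel.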

The next assay addresses T2, PI3 Kinase (p120g)(h) (Homo sapiens, UniProt P48736).
T2 construct: purchased Eurofins KinaseProfiler
Put plainly: Eurofins kinase profiling. The format is biochemical. The conditions noted are these: read-out: residual kinase activity PI3 Kinase (p120g)(h). A digest of the protocol: as §2

A further assay addresses T3, EphB4(h) (Homo sapiens, UniProt P54760).
T3 construct: purchased Eurofins KinaseProfiler
T3 sequence (P54760 16-987): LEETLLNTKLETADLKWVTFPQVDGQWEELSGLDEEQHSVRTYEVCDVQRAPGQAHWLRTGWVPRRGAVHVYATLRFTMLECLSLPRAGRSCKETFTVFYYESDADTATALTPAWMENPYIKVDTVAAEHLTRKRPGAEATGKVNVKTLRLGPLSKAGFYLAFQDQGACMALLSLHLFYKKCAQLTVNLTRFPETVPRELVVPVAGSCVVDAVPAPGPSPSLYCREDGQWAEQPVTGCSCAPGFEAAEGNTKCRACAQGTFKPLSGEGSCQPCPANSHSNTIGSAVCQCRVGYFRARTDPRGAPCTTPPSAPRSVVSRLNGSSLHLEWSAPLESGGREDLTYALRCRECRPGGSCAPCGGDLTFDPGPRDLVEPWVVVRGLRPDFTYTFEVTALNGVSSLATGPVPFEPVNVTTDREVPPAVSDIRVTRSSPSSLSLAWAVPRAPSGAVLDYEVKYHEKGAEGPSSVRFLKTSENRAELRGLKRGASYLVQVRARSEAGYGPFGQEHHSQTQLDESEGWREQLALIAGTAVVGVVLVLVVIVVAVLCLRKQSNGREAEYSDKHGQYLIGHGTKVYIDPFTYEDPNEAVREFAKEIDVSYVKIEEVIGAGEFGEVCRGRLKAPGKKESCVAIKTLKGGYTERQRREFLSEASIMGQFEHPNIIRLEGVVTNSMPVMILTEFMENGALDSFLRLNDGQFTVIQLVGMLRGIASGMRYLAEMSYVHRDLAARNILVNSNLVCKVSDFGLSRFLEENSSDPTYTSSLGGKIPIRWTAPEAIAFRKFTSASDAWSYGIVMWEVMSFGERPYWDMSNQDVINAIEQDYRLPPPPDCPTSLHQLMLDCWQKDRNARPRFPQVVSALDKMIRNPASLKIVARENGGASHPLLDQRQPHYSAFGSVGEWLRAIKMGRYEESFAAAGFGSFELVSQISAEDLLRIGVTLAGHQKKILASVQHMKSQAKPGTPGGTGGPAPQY
Nature of the assay: Eurofins kinase profiling. The format is biochemical. The conditions noted are these: read-out: residual kinase activity EphB4(h). The method, boiled down: as §2

The target in the next assay is T4, PKBα(h) (Homo sapiens, UniProt P31749).
T4 construct: purchased Eurofins KinaseProfiler
Nature of the assay: Eurofins kinase profiling. Conditions: read-out: residual kinase activity PKBα(h). The format is biochemical. The method, boiled down:
as §2

For another assay, the target named is T5, DYRK2(h) (Homo sapiens, UniProt Q92630).
T5 construct: purchased Eurofins KinaseProfiler
T5 sequence (Q92630 1-601): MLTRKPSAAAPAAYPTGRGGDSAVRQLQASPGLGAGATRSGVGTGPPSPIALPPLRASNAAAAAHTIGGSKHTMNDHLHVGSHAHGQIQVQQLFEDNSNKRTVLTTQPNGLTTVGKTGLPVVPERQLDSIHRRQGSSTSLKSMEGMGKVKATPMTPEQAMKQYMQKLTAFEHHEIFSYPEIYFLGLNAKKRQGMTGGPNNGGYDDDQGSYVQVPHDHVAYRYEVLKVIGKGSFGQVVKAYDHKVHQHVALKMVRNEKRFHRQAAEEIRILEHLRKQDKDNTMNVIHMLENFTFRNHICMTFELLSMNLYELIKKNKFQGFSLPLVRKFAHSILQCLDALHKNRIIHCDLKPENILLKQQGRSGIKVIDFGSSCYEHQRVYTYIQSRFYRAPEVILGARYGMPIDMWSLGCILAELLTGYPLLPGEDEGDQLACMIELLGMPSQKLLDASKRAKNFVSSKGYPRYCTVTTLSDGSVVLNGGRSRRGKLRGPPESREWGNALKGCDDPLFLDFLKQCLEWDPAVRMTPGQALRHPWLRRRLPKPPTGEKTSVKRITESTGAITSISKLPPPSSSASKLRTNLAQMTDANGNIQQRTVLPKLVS
Nature of the assay: Eurofins kinase profiling. The format is biochemical. Conditions: read-out: residual kinase activity DYRK2(h). A digest of the protocol: as §2

The subject of another assay is HCC70. Nature of the assay: 3D spheroid assay HCC70. The format is cell-based. Conditions: Homo sapiens, 96 h; HCC70, 4 days treatment; read-out: IC50 3D spheroid cell viability. As to the method:
as §1

In the next assay the test system is MDA-MB-231 xenograft. Nature of the assay: MDA-MB-231 xenograft mouse model.
The test system of another assay is MDA-MB-453 xenograft. Put plainly: MDA-MB-453 xenograft mouse model. The conditions noted are these: for TGI: 56 days.

Where “and” joins values, the source holds several entries; their conditions need not be identical. Equal values may be shown once.

T1 sequence (Q02750 whole entry): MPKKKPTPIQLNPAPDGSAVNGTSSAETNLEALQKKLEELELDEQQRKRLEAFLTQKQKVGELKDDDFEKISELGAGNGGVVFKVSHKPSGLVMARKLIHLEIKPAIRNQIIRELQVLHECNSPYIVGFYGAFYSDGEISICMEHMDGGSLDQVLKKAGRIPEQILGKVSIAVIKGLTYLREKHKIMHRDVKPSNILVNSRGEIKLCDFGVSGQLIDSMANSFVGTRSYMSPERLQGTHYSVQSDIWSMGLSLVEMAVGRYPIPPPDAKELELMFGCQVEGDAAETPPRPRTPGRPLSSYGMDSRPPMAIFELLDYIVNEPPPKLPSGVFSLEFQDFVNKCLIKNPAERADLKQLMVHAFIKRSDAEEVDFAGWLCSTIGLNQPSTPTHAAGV
T2 sequence (P48736 whole entry): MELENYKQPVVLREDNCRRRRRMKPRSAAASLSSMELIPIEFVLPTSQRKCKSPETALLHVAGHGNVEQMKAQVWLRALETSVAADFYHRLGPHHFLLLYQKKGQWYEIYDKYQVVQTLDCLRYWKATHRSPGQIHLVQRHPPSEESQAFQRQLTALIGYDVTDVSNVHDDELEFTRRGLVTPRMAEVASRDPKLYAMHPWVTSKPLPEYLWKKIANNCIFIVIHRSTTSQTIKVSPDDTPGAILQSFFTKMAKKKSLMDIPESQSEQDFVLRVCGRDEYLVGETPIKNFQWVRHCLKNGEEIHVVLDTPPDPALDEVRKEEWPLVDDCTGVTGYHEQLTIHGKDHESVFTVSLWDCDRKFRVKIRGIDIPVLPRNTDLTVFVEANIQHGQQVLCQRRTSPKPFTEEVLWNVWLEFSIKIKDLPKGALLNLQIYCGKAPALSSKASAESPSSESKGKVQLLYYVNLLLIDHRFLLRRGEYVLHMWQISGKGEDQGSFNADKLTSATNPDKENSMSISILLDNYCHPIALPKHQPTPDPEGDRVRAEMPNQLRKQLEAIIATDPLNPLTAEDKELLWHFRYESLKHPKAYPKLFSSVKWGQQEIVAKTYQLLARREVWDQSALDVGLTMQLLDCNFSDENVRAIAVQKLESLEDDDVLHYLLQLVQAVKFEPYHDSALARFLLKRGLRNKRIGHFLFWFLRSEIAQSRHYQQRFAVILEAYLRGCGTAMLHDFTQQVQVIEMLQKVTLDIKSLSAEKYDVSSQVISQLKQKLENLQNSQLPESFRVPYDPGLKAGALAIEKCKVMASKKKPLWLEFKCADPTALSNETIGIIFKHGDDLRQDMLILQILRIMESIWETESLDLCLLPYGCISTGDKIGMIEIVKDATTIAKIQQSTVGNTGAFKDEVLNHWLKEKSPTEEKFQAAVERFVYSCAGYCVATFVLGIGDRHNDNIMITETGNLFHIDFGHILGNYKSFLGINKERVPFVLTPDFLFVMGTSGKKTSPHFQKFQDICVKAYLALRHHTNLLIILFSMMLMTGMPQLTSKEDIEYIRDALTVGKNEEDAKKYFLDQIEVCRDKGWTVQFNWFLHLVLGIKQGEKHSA
T4 sequence (P31749 whole entry): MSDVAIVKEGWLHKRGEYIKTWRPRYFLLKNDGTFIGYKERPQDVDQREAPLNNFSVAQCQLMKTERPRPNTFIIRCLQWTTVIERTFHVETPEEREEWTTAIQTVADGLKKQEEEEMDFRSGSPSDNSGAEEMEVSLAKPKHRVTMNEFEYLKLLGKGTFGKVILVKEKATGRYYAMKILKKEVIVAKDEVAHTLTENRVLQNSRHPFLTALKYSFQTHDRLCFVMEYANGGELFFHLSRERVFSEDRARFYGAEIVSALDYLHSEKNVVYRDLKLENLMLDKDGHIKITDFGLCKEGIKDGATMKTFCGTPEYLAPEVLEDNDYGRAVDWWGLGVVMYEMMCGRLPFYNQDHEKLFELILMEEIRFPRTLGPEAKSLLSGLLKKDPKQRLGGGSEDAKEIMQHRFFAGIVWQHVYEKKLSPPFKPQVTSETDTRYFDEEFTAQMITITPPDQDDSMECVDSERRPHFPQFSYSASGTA
Description for MDA-MB-231 xenograft: (§3) Upon establishment of tumors, with an average tumor volume reaching approximately 100 mm^3, mice were grouped and subjected to daily oral dosing. […] The duration of drug administration was defined for 2 weeks based on the growth rate of the vehicle group of each xenografted tumor. The tumor volume was measured three times a week for potency measurement, and the body weight of mice was also measured three times a week for toxicity evaluation in vivo.
Description for MDA-MB-453 xenograft: as §3

As to `CONC(=O)c1ccccc1Nc1cc(Nc2cc(C)nn2C(C)C)ncc1Cl` [GSK2256098], the IC50 in the assay on MDA-MB-231 was 1.12 µM; with BT-549, greater than 10 µM; in the assay on Hs578T it was greater than 10 µM; with BT-20, greater than 10 µM; with HCC70, greater than 10 µM. Moreover, the remaining activity at 1 µM was 101% on MEK1(h); 101% at PI3 Kinase (p120g)(h); 94% at EphB4(h); 105% on PKBα(h); 52% on DYRK2(h).
With `CNC(=O)c1cccc(C)c1Nc1nc(Nc2ccc(N3CCN(C4C5CC6CC4CC(O)(C6)C5)CC3)cc2OC)ncc1C(F)(F)F` (stereo not drawn) [SJP1602, 2-((2-((4-(4-((2s,5r)-5-hydroxyadamantan-2-yl)piperazin-1-yl)-2-methoxyphenyl)amino)-5-(trifluoromethyl)pyrimidin-4-yl)amino)-N,3-dimethylbenzamide], the TGI in the assay on MDA-MB-231 xenograft (20 mg/kg po QD, day 14, 20 mg/kg) was 72% and 72.1%; in the assay with MDA-MB-231 xenograft (40 mg/kg po QD, day 14, 40 mg/kg), 74%; in the assay on MDA-MB-231 xenograft (80 mg/kg po QD, day 14, 80 mg/kg), 81% and 81.3%; in the assay with MDA-MB-453 xenograft (20 mg/kg po QD), 88.9%; in the assay with MDA-MB-453 xenograft (80 mg/kg po QD), 114.1%. The “tumor mass and weight” value with MDA-MB-231 xenograft (80 mg/kg, day 14) was “significant reduction”. The IC50 in the assay on MDA-MB-231 is 0.742 µM; with BT-549, 4.71 µM; with Hs578T, greater than 10 µM; with BT-20 it was 2.53 µM; in the assay with HCC70 it was 1.45 µM. Besides, in the assay with MDA-MB-453 xenograft (80 mg/kg, day 56), the “tumor volume and weight” value is reported as “substantial reduction”. Also, the remaining activity at 1 µM on MEK1(h) was found to be 98%; at PI3 Kinase (p120g)(h) it was 85%; at EphB4(h), 93%; at PKBα(h), 100%; at DYRK2(h), 97%.
In the case of `CNC(=O)c1ccc(Nc2ncc(C(F)(F)F)c(NCc3nccnc3N(C)S(C)(=O)=O)n2)cc1` [VS-6063, Defactinib], the TGI in the assay on MDA-MB-231 xenograft (80 mg/kg po QD, day 14) is reported as 54.6%; in the assay with MDA-MB-453 xenograft (80 mg/kg po QD) it was 110.9%. Further, the IC50 is 0.427 µM in the assay with MDA-MB-231; greater than 10 µM in the assay with BT-549; 4.49 µM in the assay on Hs578T; greater than 10 µM in the assay on BT-20; 8.18 µM in the assay on HCC70. Besides, the remaining activity at 1 µM on MEK1(h) stood at 93%; at PI3 Kinase (p120g)(h), 104%; on EphB4(h) it was 67%; on PKBα(h), 101%; at DYRK2(h), 80%.

What is called IC50 is the point on the concentration scale where inhibition reaches its midpoint.
